Read-outs that look alike come from different tables or passages of the source. Positions of bridges follow the written chain, without caps; N, C: chain ends. Residues, ends and D or L forms follow the SMILES beside them.
Assays:
[1] = tested on: hKCa2.2 (SK2); experiment: Whole-cell patch-clamp, hKCa2.2 current in transfected CHO cells; assay type: cell-based, human; conditions: 100 nM; ~3 min
Source text: The scorpion toxins from the α-KTx 2 family also modulate the function of Ca^2+-activated potassium channels, in addition to Kv1 channels. Therefore, we investigated the activity of Cvill6 and Cvill7 toxins on three different types of Ca^2+-activated K^+ channels: (1) hKCa2.2 (SK2), the small-conductance Ca^2+-activated channel; (2) hKCa3.1 (IKCa1, SK4), the intermediate-conductance Ca^2+-activated channels, mainly expressed in T lymphocytes; and (3) mKCa1.1 (BK or MaxiK), the large-conductance voltage- and Ca^2+- activated channel of mice. […] The quantity of native toxins was insufficient to conduct the full dose–response curves at this high concentration range (see above).
Chinese hamster ovary (CHO) cells (generously provided by Yosef Yarden, Weizmann Institute of Science, Rehovot, Israel) or human embryonic kidney (HEK293) cells were cultured and maintained in Dulbecco’s modified Eagle medium (DMEM, Thermo Fisher Scientific, Waltham, MA, USA) supplemented with 2 mM L-glutamine, 10% fetal bovine serum (FBS), 100 µg/mL streptomycin, and 100 U/mL penicillin-g (Sigma-Aldrich, Budapest, Hungary) following standard culturing conditions. […] Cells expressing GFP were identified using a Nikon TE 2000U fluorescence microscope (Nikon, Tokyo, Japan) with bandpass filters set to 455–495 nm for excitation and 515–555 nm for emission. […]

[2] = tested on: hKv1.5; assay type: cell-based, human; conditions: 100 nM; ~3 min
Source text: (§1) For current recordings, Kv1.1, Kv1.2, and Kv1.5 were transiently expressed in CHO cells while for Kv11.1 a stable HEK293 cell line was used. To record Kv1.3 currents human peripheral T lymphocytes were activated with Phytohemagglutinin A (PHA) to boost Kv1.3 expression and Ca^2+-free intracellular solution to prevent the KCa3.1 channel opening. […] Appropriate voltage protocols were applied to record the K^+ currents from voltage-clamped cells in whole-cell configurations. Toxins were freshly dissolved in the bath solution supplemented with 0.1 mg/mL BSA and applied to the patched cells via a gravity-fed micro-perfusion system with an approximate flow rate of 200 µL/min.
Chinese hamster ovary (CHO) cells (generously provided by Yosef Yarden, Weizmann Institute of Science, Rehovot, Israel) or human embryonic kidney (HEK293) cells were cultured and maintained in Dulbecco’s modified Eagle medium (DMEM, Thermo Fisher Scientific, Waltham, MA, USA) supplemented with 2 mM L-glutamine, 10% fetal bovine serum (FBS), 100 µg/mL streptomycin, and 100 U/mL penicillin-g (Sigma-Aldrich, Budapest, Hungary) following standard culturing conditions [52]. For transient expression of ion channels, CHO cells were transfected using the Lipofectamine 2000 kit (Invitrogen, Waltham, MA, USA) following the manufacturer’s instructions with plasmids encoding specific ion channels, including hKv1.1 (KCNA1 gene), hKv1.2 (KCNA2 gene), and hKv1.5 (KCNA5 gene) in a pCMV6-AC-GFP vector (OriGene Technologies), hKCa2.2 (KCNN2 gene) in a pCDN3 plasmid (for this transfection a GFP containing plasmid was co-transfected, courtesy of Bernard Attali, Tel Aviv University, Tel Aviv, Israel), and hKCa3.1 (KCNN4 gene) in a pEGFP-C1 vector (a kind gift by H. Wulff, University of California, Davis, CA, USA). […] Electrophysiological recordings were typically conducted 24 to 48 h after transfection. […]
(§2) Whole-cell currents were recorded using the patch-clamp technique in voltage-clamp mode, following standard protocols [73]. […]

[3] = molecular target: T1, hKCa3.1 (IKCa1, SK4) (Homo sapiens, UniProt O15554); experiment: Whole-cell patch-clamp, hKCa3.1 current in transfected CHO cells; assay type: cell-based
T1 construct: expressed in transfected cells; host or cells: CHO cells, transient transfection (Lipofectamine 2000); plasmid a gift of H. Wulff
Source text: The scorpion toxins from the α-KTx 2 family also modulate the function of Ca^2+-activated potassium channels, in addition to Kv1 channels. Therefore, we investigated the activity of Cvill6 and Cvill7 toxins on three different types of Ca^2+-activated K^+ channels: (1) hKCa2.2 (SK2), the small-conductance Ca^2+-activated channel; (2) hKCa3.1 (IKCa1, SK4), the intermediate-conductance Ca^2+-activated channels, mainly expressed in T lymphocytes; and (3) mKCa1.1 (BK or MaxiK), the large-conductance voltage- and Ca^2+- activated channel of mice. Appropriate depolarization protocols were applied to record the K^+ current through respective KCa channels as shown in the inset of each panel in Figure 6A–C. […] Cvill6 reduced ~40% of the KCa3.1 current (Figure 6C), where the RCF value was 0.73 ± 0.05 (n = 5) at 100 nM (Figure 6D). On the other hand, Cvill7 inhibited ~25% of the current at the same concentration (Figure 6C), with an RCF value 0.84 ± 0.03 (n = 5) (Figure 6D). The time course of inhibition of KCa3.1 currents at 100 nM of Cvill6 or Cvill7 is shown in Figure 6E and Figure 6F, respectively. The normalized peak currents (see Section 2.4 or Section 5 for details) for individual cells (n = 5) were averaged at each time point and plotted as a function of time. […] The recovery from the block with Cvill6 to the initial peak current occurred in 4–5 consecutive traces (~0.8 min) and in the case of Cvill7 it took only 2–3 consecutive traces (~0.5 min) after perfusing the cell with toxin-lacking solution. […] The quantity of native toxins was insufficient to conduct the full dose–response curves at this high concentration range (see above).
Chinese hamster ovary (CHO) cells (generously provided by Yosef Yarden, Weizmann Institute of Science, Rehovot, Israel) or human embryonic kidney (HEK293) cells were cultured and maintained in Dulbecco’s modified Eagle medium (DMEM, Thermo Fisher Scientific, Waltham, MA, USA) supplemented with 2 mM L-glutamine, 10% fetal bovine serum (FBS), 100 µg/mL streptomycin, and 100 U/mL penicillin-g (Sigma-Aldrich, Budapest, Hungary) following standard culturing conditions. For transient expression of ion channels, CHO cells were transfected using the Lipofectamine 2000 kit (Invitrogen, Waltham, MA, USA) following the manufacturer’s instructions with plasmids encoding specific ion channels, including hKv1.1 (KCNA1 gene), hKv1.2 (KCNA2 gene), and hKv1.5 (KCNA5 gene) in a pCMV6-AC-GFP vector (OriGene Technologies), hKCa2.2 (KCNN2 gene) in a pCDN3 plasmid (for this transfection a GFP containing plasmid was co-transfected, courtesy of Bernard Attali, Tel Aviv University, Tel Aviv, Israel), and hKCa3.1 (KCNN4 gene) in a pEGFP-C1 vector (a kind gift by H. Wulff, University of California, Davis, CA, USA). Cells expressing GFP were identified using a Nikon TE 2000U fluorescence microscope (Nikon, Tokyo, Japan) with bandpass filters set to 455–495 nm for excitation and 515–555 nm for emission. Electrophysiological recordings were typically conducted 24 to 48 h after transfection.
The extracellular solution (bath solution) for both Kv and KCa channels consisted of 145 mM NaCl, 5 mM KCl, 2.5 mM CaCl2, 1 mM MgCl2, 10 mM HEPES, and 5.5 mM glucose, pH 7.35, and osmolarity between 302 and 308 mOsM/L. For positive control solutions containing various concentrations of tetraethylammoniums (TEA^+), Na^+ was substituted with TEA-Cl in equimolar concentration in the bath solution and all other ingredients remained unchanged. To avoid toxin adsorption onto the plastic surfaces of the perfusion system, 0.1 mg/mL of bovine serum albumin (BSA, Sigma-Aldrich, Budapest, Hungary) was also added into all bath solutions prior to the patch-clamp assay. […]

[4] = tested on: mKCa1.1 (BK or MaxiK); assay type: cell-based, mice; conditions: 100 nM; ~3 min
Source text: Therefore, we investigated the activity of Cvill6 and Cvill7 toxins on three different types of Ca^2+-activated K^+ channels: (1) hKCa2.2 (SK2), the small-conductance Ca^2+-activated channel; (2) hKCa3.1 (IKCa1, SK4), the intermediate-conductance Ca^2+-activated channels, mainly expressed in T lymphocytes; and (3) mKCa1.1 (BK or MaxiK), the large-conductance voltage- and Ca^2+- activated channel of mice. Appropriate depolarization protocols were applied to record the K^+ current through respective KCa channels as shown in the inset of each panel in Figure 6A–C. […] The normalized peak currents (see Section 2.4 or Section 5 for details) for individual cells (n = 5) were averaged at each time point and plotted as a function of time.
(§3) HEK 293 cells stably expressing mKCa1.1 1 (BKCa, Kcnma1 gene, generously provided by C. Beeton from Baylor College of Medicine, Houston, TX, USA) or hKv11.1 (hERG1, KCNH2 gene, gifted by H. Wulff from University of California, Davis, CA, USA) were utilized in this study.
as §2

[5] = molecular target: T2, hKv1.2 (Homo sapiens, UniProt P16389); experiment: Whole-cell patch-clamp, hKv1.2 current in transiently transfected CHO cells; assay type: cell-based; conditions: for inhibition at 0.001 µM: 1 nM
T2 construct: host or cells: CHO cells, transient transfection (Lipofectamine 2000)
Source text: as §1
Chinese hamster ovary (CHO) cells (generously provided by Yosef Yarden, Weizmann Institute of Science, Rehovot, Israel) or human embryonic kidney (HEK293) cells were cultured and maintained in Dulbecco’s modified Eagle medium (DMEM, Thermo Fisher Scientific, Waltham, MA, USA) supplemented with 2 mM L-glutamine, 10% fetal bovine serum (FBS), 100 µg/mL streptomycin, and 100 U/mL penicillin-g (Sigma-Aldrich, Budapest, Hungary) following standard culturing conditions [52]. For transient expression of ion channels, CHO cells were transfected using the Lipofectamine 2000 kit (Invitrogen, Waltham, MA, USA) following the manufacturer’s instructions with plasmids encoding specific ion channels, including hKv1.1 (KCNA1 gene), hKv1.2 (KCNA2 gene), and hKv1.5 (KCNA5 gene) in a pCMV6-AC-GFP vector (OriGene Technologies), hKCa2.2 (KCNN2 gene) in a pCDN3 plasmid (for this transfection a GFP containing plasmid was co-transfected, courtesy of Bernard Attali, Tel Aviv University, Tel Aviv, Israel), and hKCa3.1 (KCNN4 gene) in a pEGFP-C1 vector (a kind gift by H. Wulff, University of California, Davis, CA, USA). […] Electrophysiological recordings were typically conducted 24 to 48 h after transfection.
Whole-cell currents were recorded using the patch-clamp technique in voltage-clamp mode, following standard protocols [73]. […] Micropipettes were made from GC150F-7.5 borosilicate capillaries (Harvard Apparatus Co., Holliston, MA, USA) using a Sutter P2000 laser puller with tip resistance generally ranging from 3–6 MΩ in the bath solution. Only recordings with a leak current at the holding potential (Vh) of <10% of the peak current at the test potential were included in the data analysis. All recordings were performed at room temperature (20–25 °C). Control and test solutions were perfused to the cells via a gravity-driven micro-perfusion system and AutoMate Perfusion Pencil Multi-Barrel Manifold Tip (AutoMate Scientific, Berkeley, CA, USA), with an approximate flow rate of 200 µL/min, and the excess amount of bath solution was continuously removed from the recording chamber using vacuum suction.
The duration of depolarization pulses was 15 ms for Kv1.3 and 50 ms for Kv1.1 and Kv1.5. However, for Kv1.2, 15–500 ms-long pulses were used to achieve the saturated peak current due to the variable activation kinetics of this channel [74].

[6] = tested on: hKv11.1 (hERG1); experiment: Whole-cell patch-clamp, hKv11.1 current in stable HEK293 cells; assay type: cell-based, human; conditions: 100 nM; ~3 min
Protocol: Appropriate voltage protocols were applied to record the K^+ currents from voltage-clamped cells in whole-cell configurations. Toxins were freshly dissolved in the bath solution supplemented with 0.1 mg/mL BSA and applied to the patched cells via a gravity-fed micro-perfusion system with an approximate flow rate of 200 µL/min.
as §3
Whole-cell currents were recorded using the patch-clamp technique in voltage-clamp mode, following standard protocols [73]. […] Micropipettes were made from GC150F-7.5 borosilicate capillaries (Harvard Apparatus Co., Holliston, MA, USA) using a Sutter P2000 laser puller with tip resistance generally ranging from 3–6 MΩ in the bath solution. Only recordings with a leak current at the holding potential (Vh) of <10% of the peak current at the test potential were included in the data analysis. All recordings were performed at room temperature (20–25 °C). […]

T2 sequence (P16389 whole entry): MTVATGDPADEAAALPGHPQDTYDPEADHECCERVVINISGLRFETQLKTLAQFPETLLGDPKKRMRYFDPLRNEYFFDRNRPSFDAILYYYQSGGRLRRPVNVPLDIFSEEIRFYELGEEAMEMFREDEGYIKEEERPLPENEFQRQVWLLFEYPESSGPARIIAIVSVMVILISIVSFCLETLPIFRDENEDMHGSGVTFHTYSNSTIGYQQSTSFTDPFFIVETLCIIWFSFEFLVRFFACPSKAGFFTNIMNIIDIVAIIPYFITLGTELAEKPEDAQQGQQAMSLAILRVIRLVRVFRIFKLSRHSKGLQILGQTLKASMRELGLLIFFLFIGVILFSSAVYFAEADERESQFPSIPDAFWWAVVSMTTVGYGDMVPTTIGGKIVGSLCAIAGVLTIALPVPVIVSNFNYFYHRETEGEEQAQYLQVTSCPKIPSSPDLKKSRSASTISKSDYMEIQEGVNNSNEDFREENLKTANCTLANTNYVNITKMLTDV
T1 sequence (O15554 whole entry): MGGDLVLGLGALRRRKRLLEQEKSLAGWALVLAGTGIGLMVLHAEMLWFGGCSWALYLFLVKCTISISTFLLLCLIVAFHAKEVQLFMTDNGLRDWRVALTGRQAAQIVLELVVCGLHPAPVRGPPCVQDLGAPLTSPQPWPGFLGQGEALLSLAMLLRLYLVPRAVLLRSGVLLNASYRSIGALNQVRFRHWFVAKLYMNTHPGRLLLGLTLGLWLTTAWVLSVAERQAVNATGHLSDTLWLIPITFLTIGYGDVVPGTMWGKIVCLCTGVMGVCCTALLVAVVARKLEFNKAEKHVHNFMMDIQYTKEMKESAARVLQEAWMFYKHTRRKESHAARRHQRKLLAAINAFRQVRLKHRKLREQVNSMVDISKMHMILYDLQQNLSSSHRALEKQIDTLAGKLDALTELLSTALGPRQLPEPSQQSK

Question: Which “effect on KCa2.2 current” value [1] does the source give for CC[C@H](C)[C@H](N)C(=O)N[C@@H](Cc1ccccc1)C(=O)N[C@H](C(=O)N[C@@H](CC(N)=O)C(=O)N[C@H](C(=O)N[C@@H](CCCCN)C(=O)N[C@H]1CSSC[C@@H]2NC(=O)[C@H](CCCCN)NC(=O)CNC(=O)CNC(=O)[C@H](C)NC(=O)[C@H](Cc3c[nH]cn3)NC(=O)[C@H](CCC(N)=O)NC(=O)CNC(=O)[C@H](Cc3ccccc3)NC(=O)[C@H](CCCNC(=N)N)NC(=O)[C@H](CC(=O)O)NC(=O)[C@H](CCCCN)NC(=O)[C@@H]3CSSC[C@@H](C(=O)N[C@@H](Cc4ccc(O)cc4)C(=O)N4CCC[C@H]4C(=O)O)NC(=O)[C@H](CCCCN)NC(=O)[C@H](CSSC[C@H](NC(=O)[C@H](CCC(N)=O)NC(=O)[C@H](CCC(N)=O)NC(=O)[C@@H]4CCCN4C(=O)[C@H](CC(C)C)NC(=O)[C@H](CC(=O)O)NC1=O)C(=O)N[C@@H](CC(C)C)C(=O)N[C@@H](CCCNC(=N)N)C(=O)N1CCC[C@H]1C(=O)N3)NC(=O)[C@H](CCCCN)NC(=O)CNC(=O)[C@H](CC(N)=O)NC(=O)[C@H]([C@@H](C)CC)NC2=O)C(C)C)[C@@H](C)CC [Cvill6] (H-IFINVKCDLPQQCLRPCKDRFGQHAGGKCINGKCKCYP-OH; disulfide 7-29, 13-34, 17-36 (inferred); N-terminus and C-terminus assumed) here?
Answer: Its value is “Neither Cvill6 nor Cvill7 showed any effect”.

Question: And the “effect on hKv1.5 current” value [2]?
Answer: Its value is “no change in current amplitudes”.

Question: What about the “reversibility of KCa3.1 inhibition” value ([3]; 100 nM, then toxin-free solution) of the same compound?
Answer: Its value is “inhibit the KCa3.1 channel reversibly with quick association and dissociation kinetics”.

Question: What about the “time to steady-state block of KCa3.1” value ([3]; 100 nM, 5–6 consecutive traces, n = 5) of the same compound?
Answer: Its value is ~ 1 min.

Question: And the “reduction of KCa3.1 current” value ([3]; 100 nM, representative record)?
Answer: Its value is ~ 40%.

Question: What about the inhibition at 0.1 µM ([3]; CHO, 100 nM, read-out: inhibition of KCa3.1 current) of the same compound?
Answer: The inhibition at 0.1 µM was about 27%.

Question: And the potency estimated from few doses ([3]; CHO, KCa3.1, estimated from a single concentration (100 nM), bimolecular 1:1 interaction, read-out: estimated IC50)?
Answer: The potency estimated from few doses was about 268 nM.

Question: What about the “remaining current fraction (RCF, I/I0)” value ([3]; KCa3.1, 100 nM, mean ± SEM, n = 5) of the same compound?
Answer: Its value is 0.73 ± 0.05.

Question: And the “affinity for KCa3.1 relative to Cvill7” value ([3]; estimated IC50 comparison)?
Answer: Its value is “two-fold higher affinity”.

Question: And the “time to recovery from KCa3.1 block” value ([3]; toxin-lacking solution after 100 nM, n = 5)?
Answer: The value was ~ 0.8 min.

Question: And the “effect on KCa1.1 current” value [4]?
Answer: The value was “Neither Cvill6 nor Cvill7 showed any effect”.

Question: And the IC50 [5]?
Answer: The IC50 was 3.9 ± 0.27 nM.

Question: And the “steady-state block of Kv1.2” value ([5]; 100 nM, n = 5)?
Answer: The value was 97 ± 1.2%.

Question: What about the inhibition at 0.001 µM ([5]; CHO, representative record, read-out: inhibition of hKv1.2 current) of the same compound?
Answer: The inhibition at 0.001 µM was about 28%.

Question: And the inhibition at 0.001 µM ([5]; CHO, screening summary (Figure 3G), read-out: inhibition of hKv1.2 currents)?
Answer: Its inhibition at 0.001 µM is about 16%.

Question: What about the koff ([5]; CHO, Kv1.2, calculated from τoff, 100 pM Cvill7 (n = 4) or 100 nM Cvill6 (n = 5)) of the same compound?
Answer: The koff was 0.00091 s⁻¹.

Question: What about the kon ([5]; CHO, Kv1.2, calculated from τon and τoff, 100 pM Cvill7 (n = 4) or 100 nM Cvill6 (n = 5)) of the same compound?
Answer: Its kon is 290000 M⁻¹ s⁻¹.

Question: And the “times less potency for Kv1.2 than Cvill7” value ([5]; IC50 comparison)?
Answer: Its value is 244 times.

Question: And the “selectivity for Kv1.2 over Kv1.3” value ([5]; IC50 ratio)?
Answer: Its value is ~ 215 fold.

Question: And the “τon (development of block)” value ([5]; Kv1.2, 100 nM, mean ± SEM, n = 5)?
Answer: The value was 35 ± 2.7 s.

Question: What about the “τon, representative fit” value ([5]; Kv1.2, 100 nM, representative fit (Figure S5C)) of the same compound?
Answer: Its value is 38.7 s.

Question: What about the “Hill coefficient (H)” value ([5]; Kv1.2, Hill equation fit of RCF values) of the same compound?
Answer: Its value is 1.4.

Question: And the “τoff (wash-out)” value ([5]; Kv1.2, after 100 nM, mean ± SEM, n = 5)?
Answer: The value was 1287 ± 259 s.

Question: And the “τoff, representative fit” value ([5]; Kv1.2, after 100 nM, representative fit (Figure S5C))?
Answer: The value was 776.4 s.

Question: And the Kd ([5]; Kv1.2, koff/kon ratio, 100 nM, read-out: dissociation constant (Kd), koff/kon)?
Answer: Its Kd is 3.3 nM.

Question: What about the mode of block ([5]; inferred from Hill coefficients close to 1 and single-exponential kinetics) of the same compound?
Answer: Its mode of block is “pore blockers that interact with channels with 1:1 stoichiometry in a bimolecular interaction”.

Question: What about the “recovery of Kv1.2 current, up to % of initial current” value ([5]; toxin-free solution after 100 nM) of the same compound?
Answer: The value was “up to 65%”.

Question: And the “reversibility of Kv1.2 block” value ([5]; wash-out with toxin-free solution)?
Answer: Its value is “reversible but with very slow dissociation kinetics”.

Question: And the “effect on hKv11.1 (hERG1) current” value [6]?
Answer: Its value is “no change in current amplitudes”.
